Structure (SMILES) | melting point [°C]
COC(=O)CCC(NC(=O)Cc1cc(C)c(C(=O)c2ccc(Cl)cc2)n1C)C(=O)OC (stereo not given) | 129 to 130
Cn1c(/C=C/[N+](=O)[O-])cc2cccc(F)c21 | 153 to 156
COc1cccc(Cn2cc3c(-c4cccc(C(=O)NCCO)c4)cccc3n2)n1 | 104 to 105
CCOC(=O)Oc1c(OC)cc(C=CC(=O)Nc2cnc3c(C)cc(C)cc3c2-c2ccccc2Cl)cc1OC | 228 to 229
COC(=O)c1ccccc1-c1ccc(Cc2nc(-c3ccccc3)nc3ccccc23)cc1 | 120 to 121
Cc1nn2c(-c3ccc(Cl)cc3Cl)cccc2c1[N+](=O)[O-] | 146 to 150
O=C(NCC(=O)N1c2ccccc2N(Cc2ccccc2)C(=O)[C@H]2CCC[C@H]21)c1ccccc1[N+](=O)[O-] (relative stereo) | 132 to 135
CC(C)(C)C(=O)c1ccc(C2(C)OCCO2)cc1 | 75 to 82
COP(=O)(CCC(C)(C)c1cc(O)c(C(C)(C)C)cc1O)OC | 193 to 195
CNC(=C[N+](=O)[O-])NCCCOc1cccc(CCN(C)C)c1 | 93 to 94
CC(C)c1ccc(N(Cc2cnn(CCO)c2)C(=O)C2CCCc3c(O)cccc32)cc1 (stereo not given) | 110 to 114
c1ccc(-c2nn(CCCCCCCCc3nn[nH]n3)c(-c3ccccc3)c2-c2ccccc2)cc1 | 158 to 160
CC(=O)NC(NC(=O)c1ccccc1C(=O)O)C(=O)NCc1ccccc1 (stereo not given) | 186 to 188
CSc1nc(I)ncc1Br | 72 to 76
Cn1ncc(C(=O)O)c1C(=O)Nc1ccn2nc(-c3ccnc(F)c3)nc2c1 | > 290
Nc1cc(C2COCCO2)ccn1 (stereo not given) | 123 to 126
COC(=O)C1=NC2=COc3cc(C)c(Cl)cc3N2C1C(=O)O (stereo not given) | 240 to 244
O=C(Nc1ccc(CCCCn2ccnn2)cc1)c1coc(C=Cc2ccc(C(F)(F)F)cc2)n1 | 183 to 185
CCCCc1oc2ccccc2c1C(O)c1ccc(-c2cc(Br)c(O)c(Br)c2)cc1 (stereo not given) | 60 to 62
Cc1cccc(-c2[nH]c(C(C)C)nc2-c2cccc(-c3ccc(F)cc3F)c2)n1 | 70 to 72
COc1cc2c(c3c1OC(C)(C)C3)C(c1ccncc1Cl)=NC(C)(C)C2 | 126 to 128
CC(CO)Oc1cc(Oc2ccc(S(C)(=O)=O)cc2)cc2cc(C3=NCC(CCO)S3)[nH]c12 (stereo not given) | 165 to 169
CCOC(=O)CNc1nc(Cl)nc(Cl)n1 | 82 to 87
CC(C)c1[nH]c2ccccc2c1C=C1SC(=S)N(CC(=O)O)C1=O | 259 to 260
CCC(OC1OC(COC(C)=O)C(OC(C)=O)C(OC(C)=O)C1OC(C)=O)C(=O)O (stereo not given) | 98 to 100

Structure (SMILES) | melting point [°C]
O=Cc1cc(O)c(O)c([N+](=O)[O-])c1 | 142 to 143
Fc1ccc2[nH]cc(C3=CCN(CC4COc5ccc6c(c5O4)CCCO6)CC3)c2c1 (stereo not given) | 205 to 206
CCCCc1nc2cnc3cccnc3c2n1CCOc1ccccc1 | 150
CCc1ncnc(NC(CC)c2ccc(Oc3ncccn3)cc2)c1Cl (stereo not given) | 100 to 112
COc1cc(NC(=O)c2ccccc2Cl)ccc1C(=O)N1CCCC(OCCS(=O)(=O)c2ncc[nH]2)c2cc(Cl)ccc21 (stereo not given) | 247 to 248
N#Cc1ccc(Nn2cnnc2)cc1 | 200 to 204
COC(=O)Cc1ccc2c(c1)N(C)Cc1ccccc1C2=O | 88.4 to 90.5
C=C(C)C(=O)OCCCOc1ccc2cc(OC(=O)C(=C)C)ccc2c1 | 68
Nc1ccc(OCc2ccccc2)cc1[N+](=O)[O-] | 139 to 141
CCCCCCCCCCC(Cn1ccnc1)SCCCC (stereo not given) | 95 to 97
O=C(O)c1ccc2c(c1)Sc1ccc([N+](=O)[O-])cc1C=C2 | 304 to 306
NC(=O)N1C(=O)C(=C(OCCc2ccccc2)c2cccs2)c2cc(F)c(Cl)cc21 | 202 to 203
COc1ccccc1-c1c2nn(-c3ccc(Cl)cc3)c(=O)c-2c[nH]c1C | 267 to 278
O=C(NC/C=C\COc1cc(CN2CCCCC2)ccn1)c1csnn1 | 70 to 72
C=C1SC(=O)N(c2ccc3cc(-c4ccc(O)c(C(C)(C)C)c4)ccc3c2)C1=O | 276 to 278
CCOC(=O)C1(c2ccc(Cl)cc2)OCC2(CO1)c1ccccc1Oc1ccccc12 | 131 to 132
Nc1ccc2c(C3=CN4CCC3CC4)c[nH]c2c1 | 65 to 67
CCOC(=O)C1=C(C)NC(C)=C(C(=O)OCC)C1c1cc(Br)ccc1F | 118 to 119
NC(=O)OCCn1cc(C(=O)O)c(=O)c2cc(F)c(N3CCNCC3)c(F)c21 | 204 to 206
Nc1cc(Sc2ccc3c(C(=O)O)cccc3c2)ncn1 | 264 to 266
CN(C)C1(C#N)CCCCC1 | 36
COCc1c(C(=O)O)ncc2[nH]c3c(c12)CCCC3 | > 260
CNC(=O)COc1nc(N)nc(-c2ccccc2)c1-c1ccc(=O)n(C(C)C)n1 | 204 to 206
CCC(=O)Oc1cc([N+](=O)[O-])cc([N+](=O)[O-])c1OC(=O)CC | 72 to 73
NC(=O)c1nnc2n1-c1ccc(Cl)cc1C(c1ccccc1Cl)=NC2 | 226 to 228

Structure (SMILES) | melting point [°C]
CC(C)NCC(O)COc1cccc2c1CC1OC1C2 (stereo not given) | 106 to 110
Cn1ccn(CO)c1=O | 102 to 104
O=c1[nH]c(=O)n(Cc2ccc(Cl)cc2)c2nc[nH]c12 | 304 to 310
Clc1nc(Cl)c2ccsc2n1 | 116
O=C(NC1CCN(CCCOc2ccc3c4c(c(=O)oc3c2)CCC4)CC1)c1ccc([N+](=O)[O-])cc1 | 212 to 213
CCOP(=O)(OCC)Oc1c(Br)c(C)nc(C)c1-c1ccc(Oc2ccc(OC(F)(F)F)cc2)cc1 | 80 to 81
COC(=O)[C@@]1(C)Cc2c([nH]c3ccc(OC)cc23)[C@@H](c2cccc(O)c2)N1 (racemic) | 175 to 177
Cc1ccc(S(=O)(=O)OCC2COc3ccc([N+](=O)[O-])c(CC=O)c3O2)cc1 (stereo not given) | 116 to 120
COC(=O)C1=C(C)NC(C)=C(C(=O)OCCCCN(C)CCC(c2ccccc2)c2ccccc2)C1c1cccc([N+](=O)[O-])c1 (stereo not given) | 91 to 103
Clc1ccc2c3c(cccc13)C(NCCCCCn1ccnc1)=N2 | 132 to 134
Cc1nnc(N2CCN(C=O)CC2)c2cc3ccccn3c12 | 325
CN(c1cccnc1S(N)(=O)=O)S(=O)(=O)CF | 160 to 162
Cn1c(CC(=O)O)ccc1C(=O)c1ccc(Cl)cc1Cl | 165 to 166
Cc1n[nH]c(C)c1Oc1cc(Cl)cc(C#N)c1 | 136 to 140
COc1ccc(C2Sc3cc(Oc4cccc(C)c4)ccc3NC(=O)C2O)cc1 (stereo not given) | 201 to 202
OC(c1cccnn1)c1ccc(Cl)cc1Cl (stereo not given) | 130 to 132
COc1cccc([C@H]2O[C@H](CC(=O)Nc3cc(OC(C)C)c4oc(C(=O)O)cc4c3)C(=O)N(CC(C)(C)CO)c3ccc(Cl)cc32)c1OC | 189 to 190
N#CCCNC(=O)c1cccc(-c2cccn3c(=O)n(Cc4cccc(C(F)(F)F)c4)nc23)c1 | 217 to 219
CCOC(=O)CC(=O)Cc1ccc(OC)c([N+](=O)[O-])c1 | 87 to 88
Cc1cc(C)cc(-c2nc3ccc(O)cc3n2Cc2ccccc2CBr)c1 | 213
COC(=O)c1cc(N=Cc2ccccc2)ccc1O | 58 to 59
CNC(=O)ON=C1N=C(c2ccccc2)C(C)(C)S1 | 135 to 137
Cc1nc(NC(=O)Nc2ccc(Cl)cc2)sc1C(=O)NCc1ccccc1 | > 300
CC(C)(Cc1ccccc1)C(NC(=O)c1ccc(Cl)cc1)Nc1c(Nc2cccnc2)c(=O)c1=O (stereo not given) | 223 to 224
CSCC(=O)Nc1ccc(C2=NNC(=O)CC2C)cc1 (stereo not given) | 220 to 222

Structure (SMILES) | melting point [°C]
O=C(N1CCN(c2nc(N3CC=CC3)nc(N3CC=CC3)n2)CC1)n1ccnc1 | 160 to 162
COC(=O)c1c(SC)nn(C2CCCC2)c1N | 88 to 89
CC(=O)Oc1c(C)c(CCl)nc2ccccc12 | 108 to 109
OC(c1ccncc1)(c1ccc(F)c(F)c1)c1ccc(F)c(F)c1 | 147 to 149
O=C(O)CCCCCCC1C(=O)CC(=O)C1=O (stereo not given) | 102 to 104
CCC(c1cccs1)c1c(O)c2c(oc1=O)CCCCCC2 (stereo not given) | 163 to 165
CCN1C(=O)Cc2cc3occc3cc21 | 112 to 113
O=C(NO)[C@H](CNS(=O)(=O)c1ccc(OCc2c(C(F)(F)F)nn3ccccc23)cc1)N1CCN(Cc2ccccc2)CC1 | 138
COCC1=C(C(=O)OC)[C@H](c2ccc(F)c(F)c2)N(C(=O)NCCC(=O)O)C(=O)N1 | 52 to 55
CSc1ncc(Cc2ccc(Cl)cc2)c(=O)[nH]1 | 193 to 194
CCCCN(Cc1ccc(-c2ccccc2C(=N)NO)cc1)c1ncccc1C(=O)OCC | 181 to 182
Nc1c(-c2cc(Cl)ccc2O)c2c(Cl)c(Cl)ccc2[nH]c1=O | 263 to 265
CC(C)N(C(=O)c1ccc(OCCCCCOc2ccc(C(N)=NO)cc2)cc1O)C(C)C | 195 to 197
COc1ccc(/C=C(\C#N)c2ccc3ccccc3c2)cc1OC1CCCC1 | 147 to 148
C#CCOC(=O)c1ncn2c1CN(C)C(=O)c1cc(F)ccc1-2 | 220 to 222
OC[C@H]1O[C@@H](n2cnc3c(N[C@H]4CC[C@H](O)CC4)nc(Cl)nc32)[C@H](O)[C@@H]1O | 203 to 204
COc1cccc(C=C2N=C(c3ccccc3)OC2=O)c1 | 100 to 102
O=C(c1ccccc1)c1cc(-c2ccc(Cl)cc2)c(N2CCOCC2)s1 | 180
OC(Cn1cncn1)c1ccc(-c2ccc(Cl)cc2)cc1 (stereo not given) | 199
[N-]=[N+]=Nc1c(F)c(F)c(C(=O)O)c(F)c1F | 140 to 141
OCc1ccc(-c2cccc3cncn23)cc1 | 137 to 138
CCOCCNC(=O)n1cc(F)c(=O)[nH]c1=O | 134 to 135
CC(=O)C(O)C1OC(n2cc(Br)c(=O)[nH]c2=O)CC1N=[N+]=[N-] (stereo not given) | 112 to 114
CCCN(CCC)C(=O)C(CCC(N)=O)NC(=O)C=Cc1ccco1 (stereo not given) | 152 to 153
CCOC(=O)NC(=O)P(=O)(OCC)OCC | 57 to 64
